Assay results reported in patent US12441733B2, “Substituted 2,4-dioxotetrahydropyrimidines as intermediates in the synthesis of bruton's tyrosine kinase inhibitors” (Novartis AG, priority 2018, dated 2025).

System: TMD8 cells
Test: Resazurin cell viability (proliferation) assay in TMD8 DLBCL cells
Format: cell-based
Details: Homo sapiens, TMD8 cells (BTK dependent), 72 h, 50% growth inhibition vs vehicle, read-out: TMD8 Prol GI50
How it was run: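 TMD8 cells were seeded at 1×10^4 per well and treated 3 h later with compound, in an 8-point 1:4 dilution series starting at 1 μM, or DMSO, for 72 h at 37° C. Resazurin was added at 13 μg/ml final for the last 2 h, and fluorescence was read at ex 530/em 600 nm. GI50 versus vehicle was derived by curve fitting from triplicates.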

Row | Structure (SMILES) | GI50 [nM]
1 | Cc1ccc(C(=O)N2CCC3(CCN(CCc4ccc(-c5cc6c(-c7cc(F)cc(NC(=O)c8ccc(C(C)(C)O)cc8F)c7C)ncnc6[nH]5)cc4)CC3)CC2)cc1N1CCC(=O)NC1=O [Compound 5, N-(3-(6-(4-(2-(9-(3-(2,4-Dioxotetrahydropyrimidin-1(2H)-yl)-4-methylbenzoyl)-3,9-diazaspiro[5.5]undecan-3-yl)ethyl)phenyl)-7H-pyrrolo[2,3-d]pyrimidin-4-yl)-5-fluoro-2-methylphenyl)-2-fluoro-4-(2-hydroxypropan-2-yl)benzamide] | 0.47
2 | COc1ccc(C(=O)NCCN2CCOC3(CCN(Cc4ccc(-c5cc6c(-c7cc(F)cc(NC(=O)c8ccc(C(C)(C)O)cc8F)c7C)ncnc6[nH]5)cc4)CC3)C2)cc1N1CCC(=O)NC1=O [Compound 39, N-(3-(6-(4-((4-(2-(3-(2,4-dioxotetrahydropyrimidin-1(2H)-yl)-4-methoxybenzamido)ethyl)-1-oxa-4,9-diazaspiro[5.5]undecan-9-yl)methyl)phenyl)-7H-pyrrolo[2,3-d]pyrimidin-4-yl)-5-fluoro-2-methylphenyl)-2-fluoro-4-(2-hydroxypropan-2-yl)benzamide] | 4.79
3 | Cc1c(NC(=O)c2ccc(C(C)(C)O)cc2F)cc(F)cc1-c1ncnc2[nH]c(-c3ccc(CCN4CCC5(CC4)CCN(C(=O)c4ccc(F)c(N6CCC(=O)NC6=O)c4)CC5)cc3)cc12 [Compound 47, N-(3-(6-(4-(2-(9-(3-(2,4-dioxotetrahydropyrimidin-1(2H)-yl)-4-fluorobenzoyl)-3,9-diazaspiro[5.5]undecan-3-yl)ethyl)phenyl)-7H-pyrrolo[2,3-d]pyrimidin-4-yl)-5-fluoro-2-methylphenyl)-2-fluoro-4-(2-hydroxypropan-2-yl)benzamide] | 0.53
4 | COc1ccc(C(=O)N2CCC(CN3CCC(Oc4ccc(-c5cc6c(-c7cc(F)cc(NC(=O)c8ccc(C(C)(C)O)cc8F)c7C)ncnc6[nH]5)cc4)CC3)CC2)cc1N1CCC(=O)NC1=O [Compound 19, N-(3-(6-(4-((1-((1-(3-(2,4-Dioxotetrahydropyrimidin-1(2H)-yl)-4-methoxybenzoyl)piperidin-4-yl)methyl)piperidin-4-yl)oxyl)phenyl)-7H-pyrrolo[2,3-d]pyrimidin-4-yl)-5-fluoro-2-methylphenyl)-2-fluoro-4-(2-hydroxypropan-2-yl)benzamide] | 0.45
5 | COc1ccc(C(=O)N2CCN(CCCCNCc3ccc(-c4cc5c(-c6cc(F)cc(NC(=O)c7ccc(C(C)(C)O)cc7F)c6C)ncnc5[nH]4)cc3)CC2)cc1N1CCC(=O)NC1=O [Compound 40, N-(3-(6-(4-(((4-(4-(3-(2,4-dioxotetrahydropyrimidin-1(2H)-yl)-4-methoxybenzoyl)piperazin-1-yl)butyl)amino)methyl)phenyl)-7H-pyrrolo[2,3-d]pyrimidin-4-yl)-5-fluoro-2-methylphenyl)-2-fluoro-4-(2-hydroxypropan-2-yl)benzamide] | 3.43
6 | Cc1ccc(C(=O)N(C)CCCCCNCc2ccc(-c3cc4c(-c5cc(F)cc(NC(=O)c6ccc(C(C)(C)O)cc6F)c5C)ncnc4[nH]3)cc2)cc1N1CCC(=O)NC1=O [Compound 30, 3-(2,4-Dioxotetrahydropyrimidin-1(2H)-yl)-N-(5-((4-(4-(5-fluoro-3-(2-fluoro-4-(2-hydroxypropan-2-yl)benzamido)-2-methylphenyl)-7H-pyrrolo[2,3-d]pyrimidin-6-yl)benzyl)amino)pentyl)-N,4-dimethylbenzamide] | 5.2
7 | COc1ccc(C(=O)N2CCC(OC3CCN(Cc4ccc(-c5cc6c(-c7cc(F)cc(NC(=O)c8ccc(C(C)(C)O)cc8F)c7C)ncnc6[nH]5)cc4)CC3)CC2)cc1N1CCC(=O)NC1=O [Compound 8, N-(3-(6-(4-((4-((1-(3-(2,4-dioxotetrahydropyrimidin-1(2H)-yl)-4-methoxybenzoyl)piperidin-4-yl)oxyl)piperidin-1-yl)methyl)phenyl)-7H-pyrrolo[2,3-d]pyrimidin-4-yl)-5-fluoro-2-methylphenyl)-2-fluoro-4-(2-hydroxypropan-2-yl)benzamide] | 0.39
8 | Cc1c(NC(=O)c2ccc(C(C)(C)O)cc2F)cc(F)cc1-c1ncnc2[nH]c(-c3ccc(CCN4CCC5(CC4)CCN(C(=O)c4cccc(N6CCC(=O)NC6=O)c4)CC5)cc3)cc12 [Compound 12, N-(3-(6-(4-(2-(9-(3-(2,4-Dioxotetrahydropyrimidin-1(2H)-yl)benzoyl)-3,9-diazaspiro[5,5]undecan-3-yl)ethyl)phenyl)-7H-pyrrolo[2,3-d]pyrimidin-4-yl)-5-fluoro-2-methylphenyl)-2-fluoro-4-(2-hydroxypropan-2-yl)benzamide] | 0.93
9 | COc1ccc(C(=O)NCCN2CCC3(CC2)CCN(Cc2ccc(-c4cc5c(-c6cc(F)cc(NC(=O)c7ccc(C(C)(C)O)cc7F)c6C)ncnc5[nH]4)cc2)CC3)cc1N1CCC(=O)NC1=O [Compound 44, N-(3-(6-(4-((9-(2-(3-(2,4-dioxotetrahydropyrimidin-1(2H)-yl)-4-methoxybenzamido)ethyl)-3,9-diazaspiro[5.5]undecan-3-yl)methyl)phenyl)-7H-pyrrolo[2,3-d]pyrimidin-4-yl)-5-fluoro-2-methylphenyl)-2-fluoro-4-(2-hydroxypropan-2-yl)benzamide] | 3.74
10 | Cc1c(NC(=O)c2ccc(C(C)(C)O)cc2F)cc(F)cc1-c1ncnc2[nH]c(-c3ccc(CN4CCC5(CC4)CCN(C(=O)c4ccc(F)c(N6CCC(=O)NC6=O)c4)CC5)cc3)cc12 [Compound 14, N-(3-(6-(4-((9-(3-(2,4-Dioxotetrahydropyrimidin-1(2H)-yl)-4-fluorobenzoyl)-3,9-diazaspiro[5.5]undecan-3-yl)methyl)phenyl)-7H-pyrrolo[2.3-d]pyrimidin-4-yl)-5-fluoro-2-methylphenyl)-2-fluoro-4-(2-hydroxypropan-2-yl)benzamide] | 1.02
11 | Cc1cc(F)c(C(=O)NCCCCCNCc2ccc(-c3cc4c(-c5cc(F)cc(NC(=O)c6ccc(C(C)(C)O)cc6F)c5C)ncnc4[nH]3)cc2)cc1N1CCC(=O)NC1=O [Compound 29, 5-(2,4-Dioxotetrahydropyrimidin-1(2H)-yl)-2-fluoro-N—(S-((4-(4-(5-fluoro-3-(2-fluoro-4-(2-hydroxypropan-2-yl)benzamido)-2-methylphenyl)-7H-pyrrolo[2,3-d]pyrimidin-6-yl)benzyl)amino)pentyl)-4-methylbenzamide] | 2.25
12 | CCOc1ccc(C(=O)N2CCC3(CCN(Cc4ccc(-c5cc6c(-c7cc(F)cc(NC(=O)c8ccc(C(C)(C)O)cc8F)c7C)ncnc6[nH]5)cc4)CC3)CC2)cc1N1CCC(=O)NC1=O [Compound 4, N-(3-(6-(4-((9-(3-(2,4-Dioxotetrahydropyrimidin-1(2H)-yl)-4-ethoxybenzoyl)-3,9-diazaspiro[5.5]undecan-3-yl)methyl)phenyl)-7H-pyrrolo[2,3-d]pyrimidin-4-yl)-5-fluoro-2-methylphenyl)-2-fluoro-4-(2-hydroxypropan-2-yl)benzamide] | 1.84
13 | Cc1ccc(C(=O)N2CCC3(CCN(Cc4ccc(-c5cc6c(-c7cc(F)cc(NC(=O)c8ccc(C(C)(C)O)cc8F)c7C)ncnc6[nH]5)cc4)CC3)CC2)cc1N1CCC(=O)NC1=O [Compound 27, N-(3-(6-(4-((9-(3-(2,4-Dioxotetrahydropyrimidin-1(2H)-yl)-4-methylbenzoyl)-3,9-diazaspiro[5.5]undecan-3-yl)methyl)phenyl)-7H-pyrrolo[2,3-d]pyrimidin-4-yl)-5-fluoro-2-methylphenyl)-2-fluoro-4-(2-hydroxypropan-2-yl)benzamide] | 0.4
14 | COc1ccc(C(=O)N2CCN(C(=O)N3CCN(Cc4ccc(-c5cc6c(-c7cc(F)cc(NC(=O)c8ccc(C(C)(C)O)cc8F)c7C)ncnc6[nH]5)cc4)CC3)CC2)cc1N1CCC(=O)NC1=O [Compound 22, N-(3-(6-(4-((4-(4-(3-(2,4-Dioxotetrahydropyrimidin-1(2H)-yl)-4-methoxybenzoyl)piperazine-1-carbonyl)piperazin-1-yl)methyl)phenyl)-7H-pyrrolo[2,3-d]pyrimidin-4-yl)-5-fluoro-2-methylphenyl)-2-fluoro-4-(2-hydroxypropan-2-yl)benzamide] | 4.82
15 | COc1ccc(C(=O)N2CCC(OC3CCN(CCc4ccc(-c5cc6c(-c7cc(F)cc(NC(=O)c8ccc(C(C)(C)O)cc8F)c7C)ncnc6[nH]5)cc4)CC3)CC2)cc1N1CCC(=O)NC1=O [Compound 34, N-(3-(6-(4-(2-(4-((1-(3-(2,4-Dioxotetrahydropyrimidin-1(2H)-yl)-4-methoxybenzoyl)piperidin-4-yl)oxyl)piperidin-1-yl)ethyl)phenyl)-7H-pyrrolo[2,3-d]pyrimidin-4-yl)-5-fluoro-2-methylphenyl)-2-fluoro-4-(2-hydroxypropan-2-yl)benzamide] | 1.7
16 | COc1ccc(C(=O)N2CCC3(CCN(Cc4ccc(-c5cc6c(-c7cc(F)cc(NC(=O)c8ccc(C(C)(C)O)cc8F)c7C)ncnc6[nH]5)cc4)CC3)CC2)cc1N1CCC(=O)NC1=O [Compound 9, N-(3-(6-(4-((9-(3-(2,4-Dioxotetrahydropyrimidin-1(2H)-yl)-4-methoxybenzoyl)-3,9-diazaspiro[5.5]undecan-3-yl)methyl)phenyl)-7H-pyrrolo[2.3-d]pyrimidin-4-yl)-5-fluoro-2-methylphenyl)-2-fluoro-4-(2-hydroxypropan-2-yl)benzamide] | 0.52
17 | Cc1c(NC(=O)c2ccc(C(C)(C)O)cc2F)cc(F)cc1-c1ncnc2[nH]c(-c3ccc(COC4CCN(CCC5CCN(C(=O)c6ccc(F)c(N7CCC(=O)NC7=O)c6)CC5)CC4)cc3)cc12 [Compound 6, N-(3-(6-(4-(((1-(2(1-(3-(2,4-dioxotetrahydropyrimidin-1(2H)-yl)-4-fluorobenzoyl)piperidin-4-yl)ethyl)piperidin-4-yl)oxyl)methyl)phenyl)-7H-pyrrolo[2,3-d]pyrimidin-4-yl)-5-fluoro-2-methylphenyl)-2-fluoro-4-(2-hydroxypropan-2-yl)benzamide] | 0.53
